# Experimental data: patent US20070027138A1 (priority 2000, published 2007)
# Counter-ions that a name gives are not always drawn.
# Target: acetylcholinesterase (AChE), human recombinant (Homo sapiens, UniProt P22303)
# Assay: biochemical
# Type: biochemical
# Settings: not given
# acetylcholinesterase (AChE), human recombinant, sequence (P22303 32-614): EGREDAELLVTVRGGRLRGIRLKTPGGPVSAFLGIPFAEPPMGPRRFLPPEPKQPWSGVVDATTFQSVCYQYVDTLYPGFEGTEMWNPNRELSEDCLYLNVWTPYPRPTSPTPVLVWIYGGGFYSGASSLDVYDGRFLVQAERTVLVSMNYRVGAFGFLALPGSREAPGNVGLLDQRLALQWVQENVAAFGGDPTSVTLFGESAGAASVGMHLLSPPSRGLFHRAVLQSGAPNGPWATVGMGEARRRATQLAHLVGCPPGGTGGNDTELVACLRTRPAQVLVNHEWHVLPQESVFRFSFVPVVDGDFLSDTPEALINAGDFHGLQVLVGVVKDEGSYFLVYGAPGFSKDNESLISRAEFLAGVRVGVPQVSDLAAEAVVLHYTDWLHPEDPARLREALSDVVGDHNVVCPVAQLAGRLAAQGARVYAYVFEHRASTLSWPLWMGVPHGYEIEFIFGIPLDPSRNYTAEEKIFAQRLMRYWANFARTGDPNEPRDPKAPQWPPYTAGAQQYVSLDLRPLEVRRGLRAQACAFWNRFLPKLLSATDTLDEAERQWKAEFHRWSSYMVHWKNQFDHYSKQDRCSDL
row,SMILES,IC50 [µM]
1,COc1ccc2c3c1OC1CC(O)C=CC31CCN(CCCCN1C(=O)c3ccccc3S1(=O)=O)C2 (centres unmarked) [SPH-1369],0.022

# Same assay, conditions: human recombinant enzyme (hr); pre-incubation of the enzyme with inhibitor (mE); read-out: IC50 (AChE, mE, hr)
row,SMILES,IC50 [µM]
1,"COc1ccc2c3c1OC1CC(O)C=CC31CC[N+](C)(CC1CC1)C2 (single isomer, unassigned; (-)) [SPH-1146, (−) Cyclopropylmethylgalanthaminium bromide]",1.2
2,"CCOC(=O)CCN1CCC23C=C[C@H](O)CC2Oc2c(OC)cc(Br)c(c23)C1 (stereo partly drawn) [SPH-1162, 3-((6R)-1-Bromo-6-hydroxy-3-methoxy-5,6,9,10-tetrahydro-4aH-[1]benzofuro[3a,3,2-ef][2]benzazepin-11(12H)-yl)propanoic acid ethyl ester]",200
3,COc1cc(N(C)C)c2c3c1O[C@H]1CC(O)C=CC31CCN(C)C2 (some centres unmarked) [SPH-1163],200
4,C=CCN1CCC23C=CC(O)CC2Oc2c(OC)cc(C)c(c23)C1 (centres unmarked) [SPH-1199],200
5,COc1cc(C)c2c3c1OC1CC(O)C=CC31CCN(C)C2 (centres unmarked) [SPH-1200],200
6,COc1cc(C)c2c3c1OC1C[C@@H](O)C=CC31CCN(CCN1CCOCC1)C2 (some centres unmarked) [SPH-1202],200
7,COc1cc(C)c2c3c1OC1CC(O)C=CC31CCN(C)C2 (centres unmarked) [SPH-1204],200
8,"COc1cc(Br)c2c3c1OC1C[C@@H](O)C=CC31CCN(C(=O)NC(C)C)C2 (stereo partly drawn) [SPH-1208, (6R)-1-Bromo-6-hydroxy-N^11-isopropyl-3-methoxy-5,6,9,10-tetrahydro-4aH-[1]benzofuro[3a,3,2-ef][2]benzazepine-11(12H)-carboxylic acid amide]",200
9,"COc1ccc2c3c1OC1C[C@@H](O)C=CC31CCN(c1nc(Oc3ccccc3)nc(Oc3ccccc3)n1)C2 (stereo partly drawn) [SPH-1228, (6R)-11-(4,6-Diphenoxy-1,3,5-triazine-2-yl)-3-methoxy-5,6,9,10,11,12-hexahydro-4aH-[1]benzofuro[3a,3,2-ef][2]benzazepin-6-ol]",200
10,"COc1ccc2c3c1OC1C[C@@H](O)C=CC31CCN(c1nc(OCCN)nc(OCCN)n1)C2 (stereo partly drawn) [SPH-1233, (6R)-11-(4,6-Bis-(2aminoethoxy)-1,3,5-triazine-2-yl)-3-methoxy-5,6,9,10,11,12-hexahydro-4aH-[1]benzofuro[3a,3,2-ef][2]benzazepin-6-ol]",200
11,"COc1ccc2c3c1OC1CC(O)C=CC31CN(C)CC2 (centres unmarked) [SPH-1263, (4aα,8aα)-4a,5,9,10,11-Hexahydro-3-methoxy-10-methyl-6H-benzofuro[3a,3,2-ef]-[3]benzazepin-6-ol]",200
12,COc1ccc2c3c1OC1C[C@@H](O)C=CC31CCN(C(=O)Nc1ccccc1C(F)(F)F)C2 (some centres unmarked) [SPH-1266],30
13,COc1ccc2c3c1OC1CC(O)C=CC31CCN(CCC(=O)O)C2 (centres unmarked) [SPH-1276],42
14,COC(=O)C(=CN1CCC23C=CC(O)CC2Oc2c(OC)ccc(c23)C1)C(=O)OC (centres unmarked) [SPH-1278],100
15,COc1cc(C)c2c3c1OC1CC(O)C=CC31CCN(CCCN1CCCCC1)C2 (centres unmarked) [SPH-1298],200
16,COc1ccc2c3c1OC1CC(O)C=CC31CCCC2N (centres unmarked) [SPH-1309],200
17,COc1ccc2c3c1OC1CC(O)C=CC31CCN(CCN)C2 (centres unmarked) [SPH-1311],1.3
18,C=CCCC(=O)N1CCC23C=CC(O)CC2Oc2c(OC)ccc(c23)C1 (centres unmarked) [SPH-1326],8.4
19,COC(=O)C1=CON2CCC34C=CC(O)CC3Oc3c(OC)ccc(c34)C12 (centres unmarked) [SPH-1332],200

# Same assay, conditions: last section of the table, own sub-head (r307); read-out: IC50 AChE
row,SMILES,IC50 [µM]
1,C=C(C)C[N+]1(C)CC[C@@]23C=C[C@H](O)C[C@@H]2Oc2c(OC)ccc(c23)C1 (some centres unmarked) [SPH-1193],1.5

# Same assay, conditions: read-out: IC50 (AChE, mE, hr); human recombinant enzyme (hr); pre-incubation of the enzyme with inhibitor (mE)
row,SMILES,IC50 [µM]
1,"COc1cc(Br)c2c3c1OC1C[C@@H](O)C=CC31CCN(CCC#N)C2 (stereo in doubt) [SPH-1210, 3-((6R)-1-Bromo-6-hydroxy-3-methoxy-5,6,9,10-tetrahydro-4aH-[I]benzofuro[3a,3,2-ef][2]benzazepine-11(12H)-yl)propanenitrile]",200

# Tested on: not given
# Assay: not given
# Settings: not given
row,melting point [°C],SMILES
1,251 to 255,COc1ccc2c3c1O[C@H]1C[C@@H](O)C=C[C@@]31CCN(C)C2=O
2,132 to 134,COc1ccc2c3c1O[C@H]1C[C@@H](O)C=C[C@@]31CCN1OC(OC(C)=O)C[C@@H]21 (some centres unmarked)
3,137 to 139,COc1ccc2c3c1O[C@H]1C[C@@H](O)C=C[C@@]31CCN1OC=C(C#N)[C@H]21
4,129 to 134,COc1ccc2c3c1O[C@H]1C[C@@H](O)C=C[C@@]31CCN(CCCCCN1C(=O)c3cccc4cccc(c34)C1=O)C2 (as salt: fumarate)
